Reference: patent US8937072B2, “Substituted cyanoaniline compounds, preparation and use thereof” (Sinochem Corporation, priority 2011, dated 2015)

Assays:
[1] = test system: wheat powdery mildew; test: Protectant activity in vivo (whole plant) against wheat powdery mildew
Experimental: The method is as followed: The whole plant is used in this test. The compound is dissolved in a proper solvent to get mother solution. The proper solvent is selected from acetone, methanol, DMF and so on according to their dissolving capability to the sample. The volume rate of solvent and testing solution (v/v) is equal to or less than 5%. The mother solution is diluted with water containing 0.1% tween-80 to get the testing solution whose concentration is designed. The testing solution is sprayed to the host plant by a special plant sprayer. The plant is inoculated with fungus after 24 hours. According to the infecting characteristic of fungus, the plant is stored in a humidity chamber and then transferred into greenhouse after infection is finished. And the other plants are placed in greenhouse directly. The activity of compound is obtained by eyeballing after 7 days in common.

[2] = test system: corn rust; test: Protectant activity in vivo (whole plant) against corn rust
How it was run: (§1)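 Whole plants sprayed with test solution, water plus 0.1% Tween-80 and no more than 5% solvent, then inoculated with the pathogen after 24 h. Plants held in humidity chamber or directly in greenhouse depending on fungus. Disease control scored by eye at about 7 days.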

[3] = test system: cucumber gray mold; test: Activity in vitro (96-well, High Through Put): inhibition rate against cucumber gray mold; type: cell-based; details: for inhibition rate against cucumber gray mold: in vitro, dose 0.3 mg/L
How it was run: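 Scored visually at 24 hours relative to control, the readout is pathogen germination or growth. Test solutions used acetone, methanol or DMF as solvent and were mixed with pathogen suspension in a sterile high-throughput format at constant temperature.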

[4] = test system: rice blast; test: microbe, parasite or virus in culture; type: cell-based; details: for the inhibition rate against rice blast (%) 0.03 mg/L: Table 21, 0.03 mg/L; for the inhibition rate against rice blast (%) 0.1 mg/L: Table 21, 0.1 mg/L; for the inhibition rate against rice blast (%) 0.3 mg/L: Table 21, 0.3 mg/L
[5] = test system: cucumber downy mildew; test: Protectant activity in vivo (whole plant) against cucumber downy mildew
How it was run: as §1

Row | SMILES | protectant activity against wheat powdery mildew in vivo ([1]; dose 400 mg/L) [%] | the protectant activity (%) against corn rust ([2]; 6.25 mg/L) [%] | the protectant activity (%) against corn rust ([2]; 25 mg/L) [%] | the protectant activity (%) against corn rust ([2]; 100 mg/L) [%] | the protectant activity (%) against corn rust ([2]; 400 mg/L) [%] | protectant activity against corn rust in vivo ([2]; dose 400 mg/L) [%] | the inhibition rate against cucumber gray mold (%) ([3]; 0.3 mg/L) | the inhibition rate against cucumber gray mold (%) ([3]; 0.9 mg/L) | the inhibition rate against cucumber gray mold (%) ([3]; 2.8 mg/L) | the inhibition rate against cucumber gray mold (%) ([3]; 8.3 mg/L) | the inhibition rate against rice blast (%) 0.03 mg/L [4] [%] | the inhibition rate against rice blast (%) 0.1 mg/L [4] [%] | the inhibition rate against rice blast (%) 0.3 mg/L [4] [%] | the protectant activity (%) against cucumber downy mildew ([5]; 25 mg/L) [%] | the protectant activity (%) against cucumber downy mildew ([5]; 50 mg/L) [%] | the protectant activity (%) against cucumber downy mildew ([5]; 100 mg/L) [%] | protectant activity against cucumber downy mildew in vivo ([5]; dose 50 mg/L) [%] | protectant activity against cucumber downy mildew in vivo ([5]; dose 100 mg/L) [%] | protectant activity against cucumber downy mildew in vivo ([5]; dose 400 mg/L) [%] | also measured
1 | N#Cc1cc([N+](=O)[O-])cc(Br)c1Nc1c(Cl)c(Cl)c(C#N)c(C#N)c1Cl [Compound A-42] | 98 | – | – | – | – | – | – | – | – | – | – | – | – | – | – | – | – | – | – | protectant activity against wheat powdery mildew in vivo ([1]; dose 100 mg/L): 80%
2 | N#Cc1c(Cl)c(Cl)c(Nc2cc(Cl)c(C(F)(F)F)cc2Cl)c(C#N)c1Cl [Compound B-52] | 100 | 70 | 98 | 100 | 100 | 100 | 0 | 100 | 100 | 100 | 100 | 100 | 100 | – | – | – | – | – | – | protectant activity against corn rust in vivo ([2]; dose 100 mg/L): 100%
3 | N#Cc1c(Cl)c(Cl)c(Nc2c(Cl)cc([N+](=O)[O-])cc2Cl)c(C#N)c1Cl [Compound B-54] | – | 65 | 80 | 90 | 100 | 100 | 100 | 100 | 100 | 100 | 0 | 0 | 100 | 75 | 100 | 100 | 100 | 100 | 100 | inhibition rate against cucumber gray mold [3]: 80%; inhibition rate against rice blast ([4]; in vitro, dose 0.3 mg/L): 80%
4 | Cc1cc([N+](=O)[O-])cc(Cl)c1Nc1c(Cl)c(Cl)c(C#N)c(Cl)c1C#N [Compound B-58] | – | – | – | – | – | 100 | 80 | 100 | 100 | 100 | 0 | 50 | 100 | 98 | 100 | 100 | 100 | 100 | 100 | inhibition rate against cucumber gray mold [3]: 80%; the protectant activity (%) against cucumber downy mildew ([5]; 12.5 mg/L): 98%; protectant activity against cucumber downy mildew in vivo ([5]; dose 12.5 mg/L): 98%
5 | COc1c(Cl)c(Nc2c(Cl)cc([N+](=O)[O-])cc2Cl)c(C#N)c(Cl)c1C#N [Compound B-74] | – | 40 | 70 | 95 | 100 | 100 | – | 80 | 100 | 100 | 0 | 50 | 100 | 80 | 98 | 100 | 98 | 100 | 100 | –
6 | N#Cc1c(Cl)c(Cl)c(Nc2nc(Cl)c(Cl)c(Cl)c2Cl)c(C#N)c1Cl [Compound B-128b] | 80 | – | – | – | – | 100 | – | – | – | – | 80 | 80 | 100 | – | – | – | – | 100 | 100 | –
7 | N#Cc1c(Cl)c(Cl)c(C#N)c(Nc2c(Cl)cc(C(F)(F)F)cc2Cl)c1Cl [Compound C-50] | 100 | – | – | – | – | 100 | – | – | – | – | 100 | 100 | 100 | – | – | – | – | – | – | –
